Measured values from patent US12396461B2, “Functional peptides having antimicrobial activity against phytopathogenic microorganisms” (TOYOTA JIDOSHA KABUSHIKI KAISHA, priority 2019, dated 2025).
“And” between values parts separate entries of the source, which are not always exact repeats. Equal values may be shown once. Read-outs that look alike come from different tables or passages of the source.

Columns and labels:
Type in all cases: cell-based
[1] = system: Colletotrichum orbiculare; parameters: key to Plate antimicrobial activity test Colletotrichum orbiculare, level: a case where hyphae extended to the entire well and no antimicrobial activity was found is defined as “level 0,”; a case where hyphae extended to less than a half of the well and thus the peptide inhibited the growth of the hyphae is defined as “level 1,”; a case where ungerminated spores were present and the peptide partially inhibited the germination is defined as “level 2,”; a case where all spores were ungerminated and the peptide completely inhibited the germination is defined as “level 3.”; details: 25° C. for 1 day or 2 days, microscopic observation
Fusarium oxysporum = system: Fusarium oxysporum; parameters: key to Plate antimicrobial activity test Fusarium oxysporum, level: a case where hyphae extended to the entire well and no antimicrobial activity was found is defined as “level 0,”; a case where hyphae extended to less than a half of the well and thus the peptide inhibited the growth of the hyphae is defined as “level 1,”; a case where ungerminated spores were present and the peptide partially inhibited the germination is defined as “level 2,”; a case where all spores were ungerminated and the peptide completely inhibited the germination is defined as “level 3.”
Pyricularia oryzae = system: Pyricularia oryzae; parameters: key to Plate antimicrobial activity test Pyricularia oryzae, level: a case where hyphae extended to the entire well and no antimicrobial activity was found is defined as “level 0,”; a case where hyphae extended to less than a half of the well and thus the peptide inhibited the growth of the hyphae is defined as “level 1,”; a case where ungerminated spores were present and the peptide partially inhibited the germination is defined as “level 2,”; a case where all spores were ungerminated and the peptide completely inhibited the germination is defined as “level 3.”; details: 25° C. for 1 day or 2 days, microscopic observation
Botrytis cinerea = system: Botrytis cinerea; parameters: key to Plate antimicrobial activity test Botrytis cinerea, level: a case where hyphae extended to the entire well and no antimicrobial activity was found is defined as “level 0,”; a case where hyphae extended to less than a half of the well and thus the peptide inhibited the growth of the hyphae is defined as “level 1,”; a case where ungerminated spores were present and the peptide partially inhibited the germination is defined as “level 2,”; a case where all spores were ungerminated and the peptide completely inhibited the germination is defined as “level 3.”; details: 25° C. for 1 day or 2 days, microscopic observation
[2] = system: Colletotrichum destructivum; parameters: key to Plate antimicrobial activity test Colletotrichum destructivum, level: a case where hyphae extended to the entire well and no antimicrobial activity was found is defined as “level 0,”; a case where hyphae extended to less than a half of the well and thus the peptide inhibited the growth of the hyphae is defined as “level 1,”; a case where ungerminated spores were present and the peptide partially inhibited the germination is defined as “level 2,”; a case where all spores were ungerminated and the peptide completely inhibited the germination is defined as “level 3.”; details: 25° C. for 1 day or 2 days, microscopic observation

| Substance | Plate antimicrobial activity test Colletotrichum orbiculare, level ([1]; peptide 1 μM) | Plate antimicrobial activity test Colletotrichum orbiculare, level ([1]; peptide 10 μM) | Plate antimicrobial activity test Colletotrichum orbiculare, level ([1]; peptide 100 μM) | Plate antimicrobial activity test Fusarium oxysporum, level (Fusarium oxysporum) | Plate antimicrobial activity test Pyricularia oryzae, level (Pyricularia oryzae; peptide 1 μM) | Plate antimicrobial activity test Pyricularia oryzae, level (Pyricularia oryzae; peptide 10 μM) | Plate antimicrobial activity test Pyricularia oryzae, level (Pyricularia oryzae; peptide 100 μM) | Plate antimicrobial activity test Botrytis cinerea, level (Botrytis cinerea; peptide 1 μM) | Plate antimicrobial activity test Botrytis cinerea, level (Botrytis cinerea; peptide 10 μM) | Plate antimicrobial activity test Botrytis cinerea, level (Botrytis cinerea; peptide 100 μM) | Plate antimicrobial activity test Colletotrichum destructivum, level ([2]; peptide 1 μM) | Plate antimicrobial activity test Colletotrichum destructivum, level ([2]; peptide 10 μM) | Plate antimicrobial activity test Colletotrichum destructivum, level ([2]; peptide 100 μM) |
| --- | --- | --- | --- | --- | --- | --- | --- | --- | --- | --- | --- | --- | --- |
| KMMVKEDEKNKRVITMKEELMV (listed as Solanum lycopersicum) [TsORF6-2, chemically synthesized region of TsORF6] | 0 | 0 | 0 | 1 and 0 | 0 | 0 | 0 | 0 | 0 | 2 | 0 | 0 | 0 |
| KKVAKMMV (listed as Solanum lycopersicum) [TsORF6-1-8aa-14, partial peptide of TsORF6-1, 8 amino acid residues] | 0 | 0 | 0 | 0 | 0 | 0 | 0 | 0 | 0 | 0 | 0 | 0 | 0 |
| KVAKMMVK (listed as Solanum lycopersicum) [TsORF6-1-8aa-15, partial peptide of TsORF6-1, 8 amino acid residues] | 0 | 0 | 0 | 0 | 0 | 0 | 0 | 0 | 0 | 0 | 0 | 0 | 0 |
| KTKVKNKK (listed as Solanum lycopersicum) [TsORF6-1-8aa-8, partial peptide of TsORF6-1, 8 amino acid residues] | 0 | 0 | 0 | 0 | 0 | 0 | 0 | 0 | 0 | 1 | 0 | 0 | 0 |
| VKTKV (listed as Solanum lycopersicum) [TsORF6-1-5aa-7, partial peptide of TsORF6-1, 5 amino acid residues] | 0 | 0 | 0 | 0 | 0 | 0 | 0 | 0 | 0 | 0 | 0 | 0 | 0 |
